Legend:
Assay in all cases: Growth in liquid media in presence of test compound
Assay type in all cases: cell-based
[1] = test system: Mycobacterium tuberculosis (H37Rv)
[2] = test system: Pseudomonas aeruginosa (ATCC 27853)
[3] = test system: Candida albicans (ATCC 90028)
[4] = test system: Streptococcus pyogenes (ATCC 19615)
[5] = test system: Escherichia coli (ATCC 25922)
[6] = test system: Staphylococcus aureus (ATCC 25923)

Row | SMILES | Growth in the presence of test compound, M. tuberculosis ([1]; 5 mg/L) | Growth in the presence of test compound, M. tuberculosis ([1]; 50 mg/L) | Growth in the presence of test compound, M. tuberculosis ([1]; 500 mg/L) | Growth in the presence of test compound, P. aeruginosa ([2]; 5 mg/L) | Growth in the presence of test compound, P. aeruginosa ([2]; 50 mg/L) | Growth in the presence of test compound, P. aeruginosa ([2]; 500 mg/L) | Growth in the presence of test compound, C. albicans ([3]; 5 mg/L) | Growth in the presence of test compound, C. albicans ([3]; 50 mg/L) | Growth in the presence of test compound, C. albicans ([3]; 500 mg/L) | Growth in the presence of test compound, S. pyogenes ([4]; 5 mg/L) | Growth in the presence of test compound, S. pyogenes ([4]; 50 mg/L) | Growth in the presence of test compound, S. pyogenes ([4]; 500 mg/L) | Growth in the presence of test compound, E. coli ([5]; 5 mg/L) | Growth in the presence of test compound, E. coli ([5]; 50 mg/L) | Growth in the presence of test compound, E. coli ([5]; 500 mg/L) | Growth in the presence of test compound, S. aureus ([6]; 5 mg/L) | Growth in the presence of test compound, S. aureus ([6]; 50 mg/L) | Growth in the presence of test compound, S. aureus ([6]; 500 mg/L)
1 | CC1(C)C2CC3OB(C(Cc4ccccc4)C(Cc4ccccc4)NC(=O)C(N)CCCCN)OC3(C)C1C2 (stereo not drawn) [Compound 31] | + | − | − | + | + | − | + | + | − | + | + | − | + | + | − | + | + | −
2 | CC(B1OC2CC3CC(C3(C)C)C2(C)O1)C(Cc1ccccc1)NC(=O)C(Cc1ccccc1)NC(=O)C(N)CCCCN (stereo not drawn) [Compound 36] | + | − | − | + | + | − | + | + | ± | + | + | − | + | + | − | + | + | −
3 | NCCCC[C@H](N)C(=O)NC[C@@H](Cc1ccccc1)B(O)O [Compound 38] | − | − | − | + | + | + | + | + | ± | + | + | − | + | + | ± | + | + | ±
4 | CC1(C)C2CC3OB([C@@H](CNC(=O)[C@H](N)Cc4ccccc4)Cc4ccccc4)O[C@]3(C)C1C2 (stereo partly drawn) [Compound 41] | + | ± | ± | + | + | + | + | ± | ± | + | + | ± | + | + | + | + | + | ±
5 | N[C@@H](Cc1ccccc1)C(=O)NC[C@@H](Cc1ccccc1)[B-](F)(F)F.[K+] [Compound 42] | + | − | − | + | + | + | + | ± | ± | + | + | ± | + | + | + | + | + | +
6 | Cl.Cl.NCCCC[C@@H](N)C(=O)NC[C@@H](Cc1ccc(OC(F)(F)F)cc1)B(O)O [Compound 43] | + | + | − | + | + | − | + | + | ± | + | + | − | + | + | − | + | + | −
7 | CC1(C)C2CC3OB(CC(Cc4ccccc4)NC(=O)C(N)CCCCN)OC3(C)C1C2 (stereo not drawn) [Compound 44] | + | + | − | + | + | − | + | + | ± | + | + | − | + | + | − | + | + | −
8 | CC1(C)C2CC3OB(C[C@@H](Cc4ccccc4)NC(=O)[C@H](Cc4ccccc4)NC(=O)[C@@H](N)Cc4ccccc4)O[C@]3(C)C1C2.Cl (stereo partly drawn) [Compound 45] | + | − | + | + | + | + | + | + | − | + | + | + | + | + | + | + | ± | +
9 | Cl.Cl.NCCCC[C@H](N)C(=O)NC[C@@H](Cc1ccc(F)cc1)B(O)O [Compound 46] | − | − | − | + | + | + | + | + | ± | + | + | + | + | + | + | + | + | +
10 | CC1(C)C2CC3OB(C(CNC(=O)C(N)CCCCN)Cc4ccc(OC(F)(F)F)cc4)OC3(C)C1C2.Cl.Cl (stereo not drawn) [Compound 47] | + | − | − | + | + | − | + | + | − | + | + | − | + | + | − | + | + | −
